{"source": "patent US20250145642A1", "about": "“BICYCLIC HETEROARENES AND METHODS OF THEIR USE” (Kineta, Inc., priority 2021, published 2025)", "data": [{"molecular_target": "full-length human PIKFYVE (N-terminal GST-fusion) (Homo sapiens (Human), UniProt Q9Y2I7, L932S/Q1183K/Q995L/S1033A/S696N/T998S)", "sequence (Q9Y2I7 whole entry S696N/L932S/Q995L/T998S/S1033A/Q1183K, the tested form may be a part)": "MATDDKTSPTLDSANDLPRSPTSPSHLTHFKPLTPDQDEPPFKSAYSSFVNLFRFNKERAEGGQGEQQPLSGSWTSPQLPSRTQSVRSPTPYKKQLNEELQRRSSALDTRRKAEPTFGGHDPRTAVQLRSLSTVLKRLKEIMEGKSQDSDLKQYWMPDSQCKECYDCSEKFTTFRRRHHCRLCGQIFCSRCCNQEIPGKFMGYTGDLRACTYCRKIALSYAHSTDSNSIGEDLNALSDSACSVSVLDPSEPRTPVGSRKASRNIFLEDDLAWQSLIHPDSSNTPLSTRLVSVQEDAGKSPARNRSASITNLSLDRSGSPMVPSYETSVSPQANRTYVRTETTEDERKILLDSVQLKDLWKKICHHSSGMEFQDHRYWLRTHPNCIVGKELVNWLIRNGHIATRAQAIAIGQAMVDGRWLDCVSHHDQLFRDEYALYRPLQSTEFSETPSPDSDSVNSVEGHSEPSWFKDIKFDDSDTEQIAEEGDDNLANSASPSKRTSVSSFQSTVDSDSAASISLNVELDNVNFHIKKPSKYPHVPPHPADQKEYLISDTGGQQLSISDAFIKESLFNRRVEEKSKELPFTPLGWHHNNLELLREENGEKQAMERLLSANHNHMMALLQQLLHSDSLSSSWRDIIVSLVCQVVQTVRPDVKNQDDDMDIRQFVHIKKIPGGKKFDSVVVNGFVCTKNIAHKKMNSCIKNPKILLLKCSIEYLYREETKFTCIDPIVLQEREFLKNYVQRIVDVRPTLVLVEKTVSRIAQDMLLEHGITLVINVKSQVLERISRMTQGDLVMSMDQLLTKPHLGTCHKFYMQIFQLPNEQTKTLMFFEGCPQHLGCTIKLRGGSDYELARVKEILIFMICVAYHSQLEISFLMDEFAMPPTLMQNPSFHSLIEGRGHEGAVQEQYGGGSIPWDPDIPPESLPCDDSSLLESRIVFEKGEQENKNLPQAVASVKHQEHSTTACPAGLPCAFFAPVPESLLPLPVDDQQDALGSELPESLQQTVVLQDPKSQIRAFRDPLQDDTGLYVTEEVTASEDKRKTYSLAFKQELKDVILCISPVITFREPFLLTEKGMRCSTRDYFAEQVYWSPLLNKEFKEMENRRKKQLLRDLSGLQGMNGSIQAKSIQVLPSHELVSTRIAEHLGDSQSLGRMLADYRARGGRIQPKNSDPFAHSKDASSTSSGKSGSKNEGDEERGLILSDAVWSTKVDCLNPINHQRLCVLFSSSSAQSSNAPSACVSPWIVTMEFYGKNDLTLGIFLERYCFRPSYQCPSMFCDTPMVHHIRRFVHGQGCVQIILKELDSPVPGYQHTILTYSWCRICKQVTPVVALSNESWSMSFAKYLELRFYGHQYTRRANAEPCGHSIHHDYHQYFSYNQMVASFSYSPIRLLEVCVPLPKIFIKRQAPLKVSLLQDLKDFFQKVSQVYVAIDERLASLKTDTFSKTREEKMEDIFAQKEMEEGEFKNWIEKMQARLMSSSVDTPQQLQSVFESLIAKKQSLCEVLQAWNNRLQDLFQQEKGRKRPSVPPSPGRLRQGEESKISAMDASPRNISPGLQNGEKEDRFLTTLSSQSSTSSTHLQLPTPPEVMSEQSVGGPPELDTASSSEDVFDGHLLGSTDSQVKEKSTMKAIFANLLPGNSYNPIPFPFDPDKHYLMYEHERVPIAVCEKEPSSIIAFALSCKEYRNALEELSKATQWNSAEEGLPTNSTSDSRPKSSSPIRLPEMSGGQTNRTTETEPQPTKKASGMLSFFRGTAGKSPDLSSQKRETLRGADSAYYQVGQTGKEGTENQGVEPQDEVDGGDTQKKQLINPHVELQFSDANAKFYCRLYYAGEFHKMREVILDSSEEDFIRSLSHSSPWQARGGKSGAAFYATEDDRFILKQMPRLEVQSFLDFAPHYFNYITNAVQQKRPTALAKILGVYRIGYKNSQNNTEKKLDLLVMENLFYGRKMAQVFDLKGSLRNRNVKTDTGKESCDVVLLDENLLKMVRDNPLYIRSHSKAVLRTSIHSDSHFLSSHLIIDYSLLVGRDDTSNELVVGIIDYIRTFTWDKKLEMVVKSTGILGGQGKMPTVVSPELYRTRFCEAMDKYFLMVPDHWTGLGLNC", "assay": "PIKfyve biochemical assay (ADP-Glo Kinase assay, Carna Biosciences)", "conditions": "ADP-Glo, full-length human GST-PIKFYVE, 10 μM to 3 nM; read-out: hPIKfyve IC50", "from_the_text": "(§1) PIKfyve Biochemical Assay. The biochemical PIKfyve inhibition assays were run by Carna Biosciences according to proprietary methodology based on the Promega ADP-Glo™ Kinase assay. A full-length human PIKFYVE [1-2098(end) amino acids and S696N, L932S, Q995L, T998S, S1033A and Q1183K of the protein having the sequence set forth in NCBI Reference Sequence No. NP_055855.2] was expressed as N-terminal GST-fusion protein (265 kDa) using baculovirus expression system. GST-PIKFYVE was purified by using glutathione sepharose chromatography and used in an ADP-Glo™ Kinase assay (Promega). Reactions were set up by adding the test compound solution, substrate solution, ATP solution and kinase solution, each at 4× final concentrations. Reactions were prepared with assay buffer (50 mM MOPS, 1 mM DTT, pH7.2), mixed, and incubated in black 384 well polystyrene plates for 1 hour at room temperature. ADP-Glo™ reagent was then added for 40 minutes, followed by kinase detection reagent for an additional 40 minutes. The kinase activity was evaluated by detecting relative light units on a luminescence plate reader. Samples were run in duplicate from 10 μM to 3 nM. […] IC50 values were calculated from concentration vs % inhibition curves by fitting to a four-parameter logistic curve.\nas §1, with “The” for “PIKfyve Biochemical Assay. The”, “accession number” for “the protein having the sequence set forth in NCBI Reference Sequence No.”, “curve. […]” for “curve.”", "units": {"IC50": "µM"}, "values": [{"compound": "COc1cccc(-c2nccc(-c3nc(N4CCOCC4)nc4c3CCN4c3cccnc3)n2)c1", "note": "[Compound 123, 4-(4-(2-(3-methoxyphenyl)pyrimidin-4-yl)-7-(pyridin-3-yl)-6,7-dihydro-5H-pyrrolo[2,3-d]pyrimidin-2-yl)morpholine]", "IC50": "0.1 to 1"}, {"compound": "CC(C)(C)OC(=O)N1CCC(N2CCc3c(OCc4cccnc4)nc(N4CCOCC4)nc32)CC1", "note": "[Compound 5, tert-butyl 4-(2-morpholino-4-(pyridin-3-ylmethoxy)-5H-pyrrolo[2,3-d]pyrimidin-7(6H)-yl)piperidine-1-carboxylate]", "IC50": "> 10"}, {"compound": "CN1CC(c2nc(N3CCOCC3)nc3c2CCN3c2ccccc2)C1", "note": "[Compound 117, 4-(4-(1-methylazetidin-3-yl)-7-phenyl-6,7-dihydro-5H-pyrrolo[2,3-d]pyrimidin-2-yl)morpholine]", "IC50": "0.1 to 1"}, {"compound": "c1ccc(-n2ncc3c(N4CCOCC4)nc(OCc4cccnc4)nc32)cc1", "note": "[Compound 131, 4-(1-phenyl-6-(pyridin-3-ylmethoxy)-1H-pyrazolo[3,4-d]pyrimidin-4-yl)morpholine]", "IC50": "1 to 10"}, {"compound": "O=c1ccccn1-c1nc(N2CCOCC2)nc2c1CCN2c1cccnc1", "note": "[Compound 52, 1-(2-morpholino-7-(pyridin-3-yl)-6,7-dihydro-5H-pyrrolo[2,3-d]pyrimidin-4-yl)pyridin-2(1H)-one]", "IC50": "1 to 10"}, {"compound": "c1cncc(N2CCc3c(N4Cc5ccccc5C4)nc(N4CCOCC4)nc32)c1", "note": "[Compound 80, 4-(4-(isoindolin-2-yl)-7-(pyridin-3-yl)-6,7-dihydro-5H-pyrrolo[2,3-d]pyrimidin-2-yl)morpholine]", "IC50": "0.01 to 0.1"}, {"compound": "Cc1cccc(CN2CCc3c(Cl)nc(N4CCOCC4)nc32)c1", "note": "[Compound 41, 4-(4-chloro-7-(3-methylbenzyl)-6,7-dihydro-5H-pyrrolo[2,3-d]pyrimidin-2-yl)morpholine]", "IC50": "> 10"}, {"compound": "c1cncc(N2CCc3c(-c4ccnnc4)nc(N4CCOCC4)nc32)c1", "note": "[Compound 97]", "IC50": "0.01 to 0.1"}, {"compound": "c1ccc(N2CCc3c(N4CCOCC4)nc(N4CCOCC4)nc32)cc1", "note": "[Compound 78, 4,4′-(7-phenyl-6,7-dihydro-5H-pyrrolo[2,3-d]pyrimidine-2,4-diyl)dimorpholine]", "IC50": "0.01 to 0.1"}, {"compound": "c1ccc(-n2cc(N3CCc4c(Oc5cccnc5)nc(N5CCOCC5)nc43)cn2)cc1", "note": "[Compound 71, 4-(7-(1-phenyl-1H-pyrazol-4-yl)-4-(pyridin-3-yloxy)-6,7-dihydro-5H-pyrrolo[2,3-d]pyrimidin-2-yl)morpholine]", "IC50": "0.01 to 0.1"}, {"compound": "c1cncc(COc2nc(N3CCOCC3)nc3c2CCN3c2cccnc2)c1", "note": "[Compound 32, 4-(7-(pyridin-3-yl)-4-(pyridin-3-ylmethoxy)-6,7-dihydro-5H-pyrrolo[2,3-d]pyrimidin-2-yl)morpholine]", "IC50": "0.1 to 1"}, {"compound": "N#Cc1ccc(N2CCc3c(OCc4cccnc4)nc(N4CCOCC4)nc32)cc1", "note": "[Compound 7, 4-(2-morpholino-4-(pyridin-3-ylmethoxy)-5H-pyrrolo[2,3-d]pyrimidin-7(6H)-yl)benzonitrile]", "IC50": "0.01 to 0.1"}, {"compound": "c1cncc(N2CCc3c(N4CCN5CCOCC5C4)nc(N4CCOCC4)nc32)c1", "note": "(stereo not drawn) [Compound 79, 8-(2-morpholino-7-(pyridin-3-yl)-6,7-dihydro-5H-pyrrolo[2,3-d]pyrimidin-4-yl)octahydropyrazino[2,1-c][1,4]oxazine]", "IC50": "1 to 10"}, {"compound": "c1cncc(N2CCc3c(C4CCOC4)nc(N4CCOCC4)nc32)c1", "note": "(stereo not drawn) [Compound 89, 4-(7-(pyridin-3-yl)-4-(tetrahydrofuran-3-yl)-6,7-dihydro-6H-pyrrolo[2,3-d]pyrimidin-2-yl)morpholine]", "IC50": "0.1 to 1"}, {"compound": "Fc1cccc(N2CCc3c(-c4ccoc4)nc(N4CCOCC4)nc32)c1", "note": "[Compound 93, 4-(7-(3-fluorophenyl)-4-(furan-3-yl)-6,7-dihydro-5H-pyrrolo[2,3-d]pyrimidin-2-yl)morpholine]", "IC50": "0.01 to 0.1"}, {"compound": "c1cncc(N2CCc3c(C4CCCNC4)nc(N4CCOCC4)nc32)c1", "note": "(stereo not drawn) [Compound 114, 4-(4-(piperidin-3-yl)-7-(pyridin-3-yl)-6,7-dihydro-5H-pyrrolo[2,3-d]pyrimidin-2-yl)morpholine]", "IC50": "1 to 10"}, {"compound": "CN1CCCC(COc2nc(N3CCOCC3)nc3c2CCN3c2cnn(C)c2)C1", "note": "(stereo not drawn) [Compound 18]", "IC50": "1 to 10"}, {"compound": "c1ccc(N2CCc3c(-c4cnco4)nc(N4CCOCC4)nc32)cc1", "note": "[Compound 101, 4-(4-(oxazol-5-yl)-7-phenyl-6,7-dihydro-5H-pyrrolo[2,3-d]pyrimidin-2-yl)morpholine]", "IC50": "0.01 to 0.1"}, {"compound": "4-(6-methyl-7-(pyridin-4-yl)-4-(tetrahydrofuran-3-yl)-6,7-dihydro-5H-pyrrolo[2,3-d]pyrimidin-2-yl)morpholine [Compound 98]", "IC50": "0.01 to 0.1"}, {"compound": "c1cncc(N2CCc3c(-c4ccoc4)nc(N4CCOCC4)nc32)c1", "note": "[Compound 88, 4-(4-(furan-3-yl)-7-(pyridin-3-yl)-6,7-dihydro-6H-pyrrolo[2,3-d]pyrimidin-2-yl)morpholine]", "IC50": "0.01 to 0.1"}, {"compound": "Cc1cccc(-c2ccn(-c3nc(N4CCOCC4)nc4c3CCN4c3cccnc3)n2)c1", "note": "[Compound 83, 4-(7-(pyridin-3-yl)-4-(3-(m-tolyl)-1H-pyrazol-1-yl)-6,7-dihydro-6H-pyrrolo[2,3-d]pyrimidin-2-yl)morpholine]", "IC50": "0.01 to 0.1"}, {"compound": "CC(C)(C)OC(=O)N1CCC(c2nc(N3CCOCC3)nc3c2CCN3c2cccnc2)CC1", "note": "[Compound 107, tert-butyl 4-(2-morpholino-7-(pyridin-3-yl)-6,7-dihydro-5H-pyrrolo[2,3-d]pyrimidin-4-yl)piperidine-1-carboxylate]", "IC50": "0.1 to 1"}, {"compound": "O=C(Cc1ccccc1)N1CCc2c(-c3ccncc3)nc(N3CCOCC3)nc21", "note": "[Compound 73, 1-(2-morpholino-4-(pyridin-4-yl)-5,6-dihydro-7H-pyrrolo[2,3-d]pyrimidin-7-yl)-2-phenylethan-1-one]", "IC50": "0.01 to 0.1"}, {"compound": "c1ccc(N2CCc3c(COC4CCOCC4)nc(N4CCOCC4)nc32)cc1", "note": "[Compound 61, 4-(7-phenyl-4-(((tetrahydro-2H-pyran-4-yl)oxy)methyl)-6,7-dihydro-5H-pyrrolo[2,3-d]pyrimidin-2-yl)morpholine]", "IC50": "0.1 to 1"}, {"compound": "c1ccc(N2CCc3c(Nc4cccnc4)nc(N4CCOCC4)nc32)cc1", "note": "[Compound 77]", "IC50": "0.01 to 0.1"}, {"compound": "CN1CC(COc2nc(N3CCOCC3)nc3c2CCN3c2cccnc2)C1", "note": "[Compound 39, 4-(4-((1-methylazetidin-3-yl)methoxy)-7-(pyridin-3-yl)-6,7-dihydro-5H-pyrrolo[2,3-d]pyrimidin-2-yl)morpholine]", "IC50": "1 to 10"}, {"compound": "c1cncc(N2CCc3c(OCCC4CCCO4)nc(N4CCOCC4)nc32)c1", "note": "(stereo not drawn) [Compound 31, 4-(7-(pyridin-3-yl)-4-(2-(tetrahydrofuran-2-yl)ethoxy)-6,7-dihydro-5H-pyrrolo[2,3-d]pyrimidin-2-yl)morpholine]", "IC50": "0.01 to 0.1"}, {"compound": "c1ccc(Oc2nc(N3CCOCC3)nc3c2CCN3c2cccnc2)nc1", "note": "[Compound 58]", "IC50": "0.1 to 1"}, {"compound": "c1ccc(N2CCc3c(OCc4ccccn4)nc(N4CCOCC4)nc32)cc1", "note": "[Compound 24, 4-(7-phenyl-4-(pyridin-2-ylmethoxy)-6,7-dihydro-5H-pyrrolo[2,3-d]pyrimidin-2-yl)morpholine]", "IC50": "0.01 to 0.1"}, {"compound": "c1ccc(-n2ncc(N3CCc4c(Oc5cccnc5)nc(N5CCOCC5)nc43)n2)cc1", "note": "[Compound 68, 4-(7-(2-phenyl-2H-1,2,3-triazol-4-yl)-4-(pyridin-3-yloxy)-6,7-dihydro-5H-pyrrolo[2,3-d]pyrimidin-2-yl)morpholine]", "IC50": "1 to 10"}, {"compound": "CN1CCCC(c2nc(N3CCOCC3)nc3c2ncn3-c2cccnc2)C1", "note": "(stereo not drawn) [Compound 127, 4-(6-(1-methylpiperidin-3-yl)-9-(pyridin-3-yl)-9H-purin-2-yl)morpholine]", "IC50": "> 10"}, {"compound": "c1cncc(COc2nc(N3CCOCC3)nc3c2CCN3C2CCNCC2)c1", "note": "[Compound 6, 4-(7-(piperidin-4-yl)-4-(pyridin-3-ylmethoxy)-6,7-dihydro-5H-pyrrolo[2,3-d]pyrimidin-2-yl)morpholine]", "IC50": "> 10"}, {"compound": "CC(C)(O)COc1nc(N2CCOCC2)nc2c1CCN2c1cccnc1", "note": "[Compound 19, 2-methyl-1-(2-morpholino-7-(pyridin-3-yl)-6,7-dihydro-5H-pyrrolo[2,3-d]pyrimidin-4-yloxy)propan-2-ol]", "IC50": "0.1 to 1"}]}, {"molecular_target": "full-length human PIKFYVE (N-terminal GST-fusion) (Homo sapiens (Human), UniProt Q9Y2I7, L932S/Q1183K/Q995L/S1033A/S696N/T998S)", "assay": "PIKfyve biochemical assay (ADP-Glo Kinase assay, Carna Biosciences)", "conditions": "values plotted in FIG. 7; read-out: PIKFYVE Biochemistry (IC50)", "from_the_text": "as §1\nas §1, with “The” for “PIKfyve Biochemical Assay. The”, “accession number” for “the protein having the sequence set forth in NCBI Reference Sequence No.”, “curve. […]” for “curve.”", "units": {"IC50": "µM"}, "values": [{"compound": "c1ccc(-c2nc(-c3cc(N4CCOCC4)nc(OCc4ccncc4)n3)no2)cc1", "IC50": "> 10"}, {"compound": "O=c1c(CCOc2cccnc2)cc2ncncc2n1-c1ccccc1", "IC50": "> 10"}, {"compound": "O=c1ccn(Cc2nc(N3CCOCC3)cc(-n3nccc3-c3ccccc3)n2)cc1", "IC50": "> 10"}]}]}
